Results reported in article PMC9352670 (2022).

Columns and labels:
Test in all cases: microscale thermophoresis
[1] = test system: Dm-HS-5 (DNA, aptamer, HFNAP: side-chain on 5' nucleobase of each coding trinucleotide, positions 19,22,25,...,61 (codon key Figure 1B)) GAAAGCAGGACTGGAGATCGATTCTGGTGCTGTTGATCTCCGCCATTGTGCTCCTGCCCTTCACAGACCGAACTAGAGCTT; settings: 5 mM KCl, 1 mM MgCl2, 1 mM CaCl2 added; HBS-P+ buffer, 25 °C
[2] = test system: Dm-LS-4 (DNA, aptamer, HFNAP: side-chain on 5' nucleobase of each coding trinucleotide, positions 19,22,25,...,61 (codon key Figure 1B)) GAAAGCAGGACTGGAGATCCGCGCCGCTTTTATCCCTAGTCCCTCTTACCCTACTTCCCCTTACAGACCGAACTAGAGCTT; settings: 5 mM KCl, 1 mM MgCl2, 1 mM CaCl2 added; HBS-P+ buffer, 25 °C
[3] = test system: Dm-HS-1 TCC ∆ s.c. (DNA, aptamer, no side-chain at 52 (codon 12 TCC); others as HFNAP: fluorophenyl at 19; allylamine at 22, 25, 37; alcohol at 28, 34, 49; phenol at 31, 46; cyclopentyl at 40; cyclopropyl at 43, 58; imidazole at 55, 61) GAAAGCAGGACTGGAGATCGATTCTGGTGCTGTTGATCTCCGCCATTGTGCTCCTACCCTTCACAGACCGAACTAGAGCTT; settings: 5 mM KCl, 1 mM MgCl2, 1 mM CaCl2 added to HBS-P+; HBS-P+ buffer, 25 °C
[4] = test system: Dm-HS-1 TTG ∆ s.c. (DNA, aptamer, no side-chain at 46 (codon 10 TTG); others as HFNAP: fluorophenyl at 19; allylamine at 22, 25, 37; alcohol at 28, 34, 49; phenol at 31; cyclopentyl at 40; cyclopropyl at 43, 58; imidazole at 52, 55, 61) GAAAGCAGGACTGGAGATCGATTCTGGTGCTGTTGATCTCCGCCATTGTGCTCCTACCCTTCACAGACCGAACTAGAGCTT; settings: 5 mM KCl, 1 mM MgCl2, 1 mM CaCl2 added to HBS-P+; HBS-P+ buffer, 25 °C
[5] = test system: Dm-HS-1 TGG ∆ s.c. (DNA, aptamer, no side-chain at 25 (codon 3 TGG); others as HFNAP: fluorophenyl at 19; allylamine at 22, 37; alcohol at 28, 34, 49; phenol at 31, 46; cyclopentyl at 40; cyclopropyl at 43, 58; imidazole at 52, 55, 61) GAAAGCAGGACTGGAGATCGATTCTGGTGCTGTTGATCTCCGCCATTGTGCTCCTACCCTTCACAGACCGAACTAGAGCTT; settings: 5 mM KCl, 1 mM MgCl2, 1 mM CaCl2 added to HBS-P+; HBS-P+ buffer, 25 °C
[6] = test system: Dm-HS-6 (DNA, aptamer, HFNAP: side-chain on 5' nucleobase of each coding trinucleotide, positions 19,22,25,...,61 (codon key Figure 1B)) GAAAGCAGGACTGGAGATTGGTAGTAACTGCTGTCCTGCTAATCATGCCGTTCACGCTGACCTCAGACCGAACTAGAGCTT; settings: 5 mM KCl, 1 mM MgCl2, 1 mM CaCl2 added; HBS-P+ buffer, 25 °C
[7] = test system: Dm-reference-based-random-after-selection-4 (DNA, other, HFNAP: side-chain on 5' nucleobase of each coding trinucleotide, positions 19,22,25,...,61 (codon key Figure 1B)) GAAAGCAGGACTGGAGATCATCCTTCCTTATAGCATCGGCCGTTTCCGTTGCCATCCCCCCCACAGACCGAACTAGAGCTT; settings: 5 mM KCl, 1 mM MgCl2, 1 mM CaCl2 added; HBS-P+ buffer, 25 °C
[8] = test system: Dm-HS-10 (DNA, aptamer, HFNAP: side-chain on 5' nucleobase of each coding trinucleotide, positions 19,22,25,...,61 (codon key Figure 1B)) GAAAGCAGGACTGGAGATCCTTCGCATCGGCTTTCTCCCTGTCACCCCTGTTCCCCTTGACCGCAGACCGAACTAGAGCTT; settings: 5 mM KCl, 1 mM MgCl2, 1 mM CaCl2 added; HBS-P+ buffer, 25 °C
[9] = test system: Dm-HS-10 ∆ s.c. (DNA, aptamer, none (no side-chains)) GAAAGCAGGACTGGAGATCCTTCGCATCGGCTTTCTCCCTGTCACCCCTGTTCCCCTTGACCGCAGACCGAACTAGAGCTT; settings: 5 mM KCl, 1 mM MgCl2, 1 mM CaCl2 added; HBS-P+ buffer, 25 °C
[10] = test system: Dm-LS-2 (DNA, aptamer, HFNAP: side-chain on 5' nucleobase of each coding trinucleotide, positions 19,22,25,...,61 (codon key Figure 1B)) GAAAGCAGGACTGGAGATCCGCGCCGCTTTTATCCCTGTCCCCGCTACCCGTATCCCTCCTTGCAGACCGAACTAGAGCTT; settings: 5 mM KCl, 1 mM MgCl2, 1 mM CaCl2 added; HBS-P+ buffer, 25 °C
[11] = test system: Dm-HS-4 (DNA, aptamer, HFNAP: side-chain on 5' nucleobase of each coding trinucleotide, positions 19,22,25,...,61 (codon key Figure 1B)) GAAAGCAGGACTGGAGATCGATTCTGGTGCTGTTGATCTCCGCCATTGTGCTCCTACCCTTCGCAGACCGAACTAGAGCTT; settings: 5 mM KCl, 1 mM MgCl2, 1 mM CaCl2 added; HBS-P+ buffer, 25 °C
[12] = test system: Dm-reference-based-random-after-selection-1 (DNA, other, HFNAP: side-chain on 5' nucleobase of each coding trinucleotide, positions 19,22,25,...,61 (codon key Figure 1B)) GAAAGCAGGACTGGAGATCCATGTCCACCGTACCGCTACTGCTACTATTTGCTTCGGTACTGTCAGACCGAACTAGAGCTT; settings: 5 mM KCl, 1 mM MgCl2, 1 mM CaCl2 added; HBS-P+ buffer, 25 °C
[13] = test system: Dm-CVAE-without-selection-1 (DNA, aptamer, HFNAP: side-chain on 5' nucleobase of each coding trinucleotide, positions 19,22,25,...,61 (codon key Figure 1B)) GAAAGCAGGACTGGAGATCCGCATCGCTTATGCTGATCTTTTCCATATTGCCTTTCCTCCTACCAGACCGAACTAGAGCTT; settings: 5 mM KCl, 1 mM MgCl2, 1 mM CaCl2 added; HBS-P+ buffer, 25 °C
[14] = test system: Dm-HS-9 ∆ s.c. (DNA, aptamer, none (no side-chains)) GAAAGCAGGACTGGAGATCGATTATTGTGATTTTGATCTCCCCCATATCCCCTTCCCTACTCGCAGACCGAACTAGAGCTT; settings: 5 mM KCl, 1 mM MgCl2, 1 mM CaCl2 added; HBS-P+ buffer, 25 °C
[15] = test system: Dm-reference-based-random-after-selection-3 (DNA, other, HFNAP: side-chain on 5' nucleobase of each coding trinucleotide, positions 19,22,25,...,61 (codon key Figure 1B)) GAAAGCAGGACTGGAGATTGCTCTTGCCCGCCCTGTTGCTATCATCCCCCACCTTAGTACCCCCAGACCGAACTAGAGCTT; settings: 5 mM KCl, 1 mM MgCl2, 1 mM CaCl2 added; HBS-P+ buffer, 25 °C

## COc1cccc2c1C(=O)c1c(O)c3c(c(O)c1C2=O)C[C@@](O)(C(C)=O)C[C@@H]3O[C@H]1C[C@H](N)[C@H](O)[C@H](C)O1
[1]
  Kd: 6.16 ± 3.4 nM
[2]
  Kd: 1980 ± 70 nM
[3]
  Kd: 29.9 ± 10.2 nM
[4]
  Kd: 32.6 ± 5.0 nM
[5]
  Kd: 16.0 ± 2.2 nM
[6]
  Kd: 26.86 ± 4.2 nM
[7]
  Kd: 107900 ± 6900 nM
[8]
  Kd: 64.68 ± 3.9 nM
[9]
  Kd ∆ side-chains: 713 ± 28 nM
[10]
  Kd: 970 ± 60 nM
[11]
  Kd: 2.05 ± 0.65 nM
[12]
  Kd: 63600 ± 2400 nM
[13]
  Kd: 13.2 ± 3.2 nM
[14]
  Kd ∆ side-chains: 5000 ± 140 nM
[15]
  Kd: 176500 ± 8000 nM
